Assay results as given in patent US20250312258A1, “2,3-PYRROLIDINEDIONE CONJUGATES AND METHODS OF USING THEREOF” (North Carolina State University, priority 2022, published 2025).
In brackets after ≈: the same amount, converted by molar mass.

What was measured:
[1] = test system: S. aureus 25923; assay: Broth microdilution MIC, S. aureus 25923; type: cell-based, Staphylococcus aureus; settings: Staphylococcus aureus, 25923; read-out: MIC (S. aureus 25923)
[2] = test system: S. aureus 29213; assay: Broth microdilution MIC, S. aureus 29213; type: cell-based, Staphylococcus aureus; settings: Staphylococcus aureus, 29213; read-out: MIC (S. aureus 29213)
[3] = test system: MRSA 33591; assay: Broth microdilution MIC, MRSA 33591; type: cell-based; settings: Staphylococcus aureus, read-out: MIC (MRSA 33591)
[4] = test system: VRSA; assay: MIC against VRSA (Table 2); type: cell-based; settings: Staphylococcus aureus, read-out: MIC (VRSA)
[5] = test system: S. aureus VRS-2; assay: VRSA thigh infection model in neutropenic mice; type: in vivo, mouse; settings: 50 mg/kg PO BID q12h, 26 h post-infection, p<0.05
Method: (§1) FIG. 8 is a plot comparing the efficacy of linezolid, Compound 4 (AV-0273), and Compound 8 (AV-0267) in the S. aureus VRS-2 thigh infection model, CFU/g thigh. Test animals were rendered neutropenic with cyclophosphamide administration, 150 mg/kg on Day −4 then 100 mg/kg on Day −1 prior to infection on Day 0. On Day 0, animals were intramuscularly inoculated with 8.4×10^4 CFU/mouse (0.1 mL/animal) of the S. aureus VRS-2 strain. The vehicle and the test articles, Compound 4 (AV-0273) and Compound 8 (AV-0267), both at 100 mg/kg, were each intraperitoneally (IP) administered twice with a 12 h interval (BID q12h) at 2 and 14 h after infection. The reference standard, linezolid at 50 mg/kg, was orally (PO) administered BID q12 h starting at 2 h post-infection. Animals were sacrificed at 2 or 26 h post-infection, and the thigh tissues were harvested and weighed from each of the test animals. The bacterial counts (CFU/g thigh) of thigh tissue homogenates were measured.
as §1, with “FIG. 9” for “FIG. 8”, “of linezolid” for “of linezolid,”, “CFU/g thigh, change in bacterial counts relative to baseline count at 26h post-infection. Data represent the change in bacterial counts in thigh tissue following test article treatment relative to the initial 2 h CFU/g thigh or CFU/thigh at the time of dosing (baseline counts).” for “CFU/g thigh.”, “(BID q12 h)” for “(BID q12h)”, “(CFU/g thigh and CFU/thigh)” for “(CFU/g thigh)”, “were compared.” for “were measured.”
Example vancomycin-2,3-pyrrolidinediones conjugates were evaluated using an in vivo tissue infection model with vancomycin resistant MRSA:
Animal model: Murine thigh infection
Bacteria: VRSA (VRS-2). Gram Positive, Staphylococcus aureus (VRSA, VRS-2), Mouse Infected Thigh Model. VRS-2 is VanA producing SCC Mec II st5 train.
Vancomycin conjugates dose: 100 mg/Kg intraperitoneally (IP).
Application: This model assesses the antimicrobial efficacy of test articles in a tissue infection model with vancomycin resistant MRSA. Microbial counts are measured. […]

| SMILES | MIC [1] [µg/mL] | MIC [2] [µg/mL] | MIC [3] [µg/mL] | MIC [4] [µg/mL] | reduction in bacterial counts compared to the vehicle control group [5] [%] |
| --- | --- | --- | --- | --- | --- |
| CCC1C(c2ccc(C(F)(F)F)cc2)=C(O)C(=O)N1CCCCCCNC (stereo not shown) [Compound 3] | 2 (≈ 5.2 µM) | 2 (≈ 5.2 µM) | 2 (≈ 5.2 µM) |  |  |
| CCC1C(c2ccc(C(F)(F)F)cc2)=C(O)C(=O)N1CCOCCNC (stereo not shown) [Compound 6] | 1 (≈ 2.69 µM) | 1 (≈ 2.69 µM) |  |  |  |
| CCC1C(c2ccc(C(F)(F)F)cc2)=C(O)C(=O)N1CCCNCCCCNCCCNC (stereo not shown) [Compound 9b] | 0.5 to 1 (≈ 1.06 to 2.13 µM) | 1 (≈ 2.13 µM) | 1 (≈ 2.13 µM) |  |  |
| CCC1C(c2ccc(C(F)(F)F)cc2)=C(O)C(=O)N1CCCCNC (stereo not shown) [Compound 2] | 2 (≈ 5.61 µM) | 1 (≈ 2.81 µM) | 2 (≈ 5.61 µM) |  |  |
| CCC1C(c2ccc(C(F)(F)F)cc2)=C(O)C(=O)N1CCOCCOCCOCCNC (stereo not shown) [Compound 7] | 2 (≈ 4.34 µM) | 1 (≈ 2.17 µM) | 1 (≈ 2.17 µM) | 4 (≈ 8.69 µM) |  |
| CCC1C(c2ccc(C(F)(F)F)cc2)=C(O)C(=O)N1c1ccc(NC)cc1 (stereo not shown) [Compound 5] | 2 (≈ 5.31 µM) | 1 (≈ 2.66 µM) | 1 (≈ 2.66 µM) |  |  |
| CC(=O)NC[C@H]1CN(c2ccc(N3CCOCC3)c(F)c2)C(=O)O1 [Linezolid, reference compound] |  |  |  |  | 100 |
| CCC1C(c2ccc(C(F)(F)F)cc2)=C(O)C(=O)N1CCN(CCNC)CCN1C(=O)C(O)=C(c2ccc(C(F)(F)F)cc2)C1CC (stereo not shown) [Compound 10] | 16 (≈ 23.9 µM) | 8 (≈ 12 µM) | 8 (≈ 12 µM) |  |  |
